Results: patent US20230257396A1, “MACROCYCLES AND THEIR USE” (BLOSSOMHILL THERAPEUTICS, INC., priority 2020, published 2023)
Where a chain is given by its changes, count along the chain named.

How the values were obtained:
Experiment in all cases: KINOMEscan kinase binding assay (Eurofins/DiscoveRx), % Ctrl
Conditions in all cases: 1 μM
kinases [1] = target: T1, kinases (Homo sapiens, UniProt P00533, L858R)
T1 construct: purchased Eurofins/DiscoveRx; host or cells: E. coli BL21-derived host (T7 phage display) for most kinases; HEK-293 for the rest
In short: (§1)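 Competition binding, 1 h RT: phage-tagged or HEK-293-expressed DNA-tagged kinase + immobilized ligand + compound. Eluate kinase by qPCR. % Ctrl = (test − positive ctrl)/(negative ctrl − positive ctrl) × 100; lower means stronger binding.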

kinases [2] = target: T2, kinases (Homo sapiens, UniProt P36888, D835H)
T2 construct: purchased Eurofins/DiscoveRx; host or cells: E. coli BL21-derived host (T7 phage display) for most kinases; HEK-293 for the rest
T2 sequence (P36888 27-993 D835H): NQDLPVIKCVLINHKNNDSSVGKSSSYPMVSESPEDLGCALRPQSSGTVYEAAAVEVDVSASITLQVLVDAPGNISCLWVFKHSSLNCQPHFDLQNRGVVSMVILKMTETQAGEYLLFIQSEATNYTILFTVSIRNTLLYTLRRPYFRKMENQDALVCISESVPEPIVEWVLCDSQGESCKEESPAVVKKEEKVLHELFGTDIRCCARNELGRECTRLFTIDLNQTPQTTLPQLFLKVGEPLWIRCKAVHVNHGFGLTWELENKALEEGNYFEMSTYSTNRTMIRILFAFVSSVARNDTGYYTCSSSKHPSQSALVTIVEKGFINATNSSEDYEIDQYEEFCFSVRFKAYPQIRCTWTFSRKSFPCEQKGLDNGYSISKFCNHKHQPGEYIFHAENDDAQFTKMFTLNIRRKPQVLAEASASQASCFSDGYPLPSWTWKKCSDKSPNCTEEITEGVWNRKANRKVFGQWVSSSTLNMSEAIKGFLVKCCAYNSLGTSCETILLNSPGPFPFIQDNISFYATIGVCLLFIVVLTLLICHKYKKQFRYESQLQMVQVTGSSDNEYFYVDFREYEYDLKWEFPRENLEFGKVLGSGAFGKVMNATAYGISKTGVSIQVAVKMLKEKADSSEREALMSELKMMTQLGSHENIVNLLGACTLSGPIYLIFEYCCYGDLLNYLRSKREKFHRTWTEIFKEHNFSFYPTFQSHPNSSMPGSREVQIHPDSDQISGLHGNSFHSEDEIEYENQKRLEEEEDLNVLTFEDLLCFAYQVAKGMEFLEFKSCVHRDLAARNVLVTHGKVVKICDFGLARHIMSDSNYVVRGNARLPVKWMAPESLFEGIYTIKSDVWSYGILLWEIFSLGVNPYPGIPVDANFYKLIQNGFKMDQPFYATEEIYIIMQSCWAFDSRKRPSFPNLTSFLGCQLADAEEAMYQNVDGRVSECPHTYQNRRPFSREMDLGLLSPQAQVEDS
In short: as §1

kinases [3] = target: T3, kinases (Homo sapiens, UniProt P10721, D816V)
T3 construct: purchased Eurofins/DiscoveRx; host or cells: E. coli BL21-derived host (T7 phage display) for most kinases; HEK-293 for the rest
In short: as §1

kinases [4] = target: T4, kinases (Homo sapiens, UniProt P36888, D835V)
T4 construct: purchased Eurofins/DiscoveRx; host or cells: E. coli BL21-derived host (T7 phage display) for most kinases; HEK-293 for the rest
T4 sequence (P36888 27-993 D835V): T2 sequence (P36888 27-993 D835H) with H809V
In short: as §1

kinases [5] = target: T5, kinases (Homo sapiens, UniProt P00519, E255K)
T5 construct: purchased Eurofins/DiscoveRx; host or cells: E. coli BL21-derived host (T7 phage display) for most kinases; HEK-293 for the rest
In short: as §1

kinases [6] = target: T6, kinases (Homo sapiens, UniProt P00533, L861Q)
T6 construct: purchased Eurofins/DiscoveRx; host or cells: E. coli BL21-derived host (T7 phage display) for most kinases; HEK-293 for the rest
In short: as §1

[7] = target ABL1(E255K)-phosphorylated

T5 sequence (P00519 whole entry E255K): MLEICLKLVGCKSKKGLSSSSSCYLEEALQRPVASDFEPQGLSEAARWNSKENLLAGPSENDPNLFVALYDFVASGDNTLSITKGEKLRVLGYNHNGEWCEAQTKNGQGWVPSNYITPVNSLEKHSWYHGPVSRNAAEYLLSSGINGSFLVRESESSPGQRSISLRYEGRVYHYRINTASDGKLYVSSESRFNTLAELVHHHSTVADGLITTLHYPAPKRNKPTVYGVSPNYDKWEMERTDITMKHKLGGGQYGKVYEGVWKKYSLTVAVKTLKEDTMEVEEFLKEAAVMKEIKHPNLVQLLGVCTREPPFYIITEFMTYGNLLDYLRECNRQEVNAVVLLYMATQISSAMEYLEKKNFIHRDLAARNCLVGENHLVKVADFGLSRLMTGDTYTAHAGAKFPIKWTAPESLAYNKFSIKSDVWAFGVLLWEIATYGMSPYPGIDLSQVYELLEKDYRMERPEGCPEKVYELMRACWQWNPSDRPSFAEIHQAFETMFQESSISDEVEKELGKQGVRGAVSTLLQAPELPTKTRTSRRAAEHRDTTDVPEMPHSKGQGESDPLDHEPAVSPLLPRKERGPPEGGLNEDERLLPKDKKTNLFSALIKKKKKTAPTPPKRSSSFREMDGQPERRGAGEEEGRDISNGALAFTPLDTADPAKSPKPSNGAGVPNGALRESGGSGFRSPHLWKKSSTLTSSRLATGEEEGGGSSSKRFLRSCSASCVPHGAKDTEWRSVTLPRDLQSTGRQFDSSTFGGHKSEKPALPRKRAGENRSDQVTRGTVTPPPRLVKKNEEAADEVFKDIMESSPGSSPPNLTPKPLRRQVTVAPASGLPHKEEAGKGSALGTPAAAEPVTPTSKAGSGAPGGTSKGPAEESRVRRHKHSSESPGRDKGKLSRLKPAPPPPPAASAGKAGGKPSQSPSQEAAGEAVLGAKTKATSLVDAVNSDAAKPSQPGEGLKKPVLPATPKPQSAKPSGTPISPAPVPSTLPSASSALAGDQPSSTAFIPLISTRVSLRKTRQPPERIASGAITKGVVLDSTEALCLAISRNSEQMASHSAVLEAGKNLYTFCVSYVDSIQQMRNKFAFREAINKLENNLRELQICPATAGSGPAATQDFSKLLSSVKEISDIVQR
T3 sequence (P10721 26-976 D816V): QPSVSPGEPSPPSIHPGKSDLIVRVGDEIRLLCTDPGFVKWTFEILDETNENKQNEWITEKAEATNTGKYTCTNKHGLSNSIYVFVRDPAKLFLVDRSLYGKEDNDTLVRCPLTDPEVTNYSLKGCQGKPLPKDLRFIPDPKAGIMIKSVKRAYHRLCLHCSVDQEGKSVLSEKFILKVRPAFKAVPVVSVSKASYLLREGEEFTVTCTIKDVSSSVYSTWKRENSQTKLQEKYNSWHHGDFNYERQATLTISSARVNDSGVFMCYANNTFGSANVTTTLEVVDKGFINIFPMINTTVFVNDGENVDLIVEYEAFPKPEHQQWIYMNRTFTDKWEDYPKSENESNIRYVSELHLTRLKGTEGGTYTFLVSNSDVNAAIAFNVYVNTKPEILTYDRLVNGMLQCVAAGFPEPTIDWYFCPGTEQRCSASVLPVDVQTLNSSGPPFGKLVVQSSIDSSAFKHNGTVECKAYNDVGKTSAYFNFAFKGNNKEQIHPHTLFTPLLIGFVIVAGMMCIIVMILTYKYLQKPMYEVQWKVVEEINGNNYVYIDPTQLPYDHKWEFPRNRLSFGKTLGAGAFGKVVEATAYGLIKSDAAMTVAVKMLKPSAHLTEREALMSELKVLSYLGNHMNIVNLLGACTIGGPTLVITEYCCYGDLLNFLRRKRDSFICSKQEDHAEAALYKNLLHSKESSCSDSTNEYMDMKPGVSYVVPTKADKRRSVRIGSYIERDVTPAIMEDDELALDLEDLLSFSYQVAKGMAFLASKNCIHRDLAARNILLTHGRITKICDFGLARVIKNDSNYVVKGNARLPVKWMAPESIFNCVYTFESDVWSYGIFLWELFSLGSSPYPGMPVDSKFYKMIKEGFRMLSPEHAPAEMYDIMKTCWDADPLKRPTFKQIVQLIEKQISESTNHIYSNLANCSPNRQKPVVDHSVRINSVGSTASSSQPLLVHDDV

Structure (SMILES) | % Ctrl, EGFR(L858R) (kinases [1]; EGFR(L858R)) [% Ctrl] | % Ctrl, FLT3(D835H) (kinases [2]; FLT3(D835H)) [% Ctrl] | % Ctrl, KIT(D816V) (kinases [3]; KIT(D816V)) [% Ctrl] | % Ctrl, FLT3(D835V) (kinases [4]; FLT3(D835V)) [% Ctrl] | % Ctrl, ABL1(E255K)-phosphorylated (kinases [5]; ABL1(E255K)-phosphorylated) [% Ctrl] | % Ctrl, EGFR(L861Q) (kinases [6]; EGFR(L861Q)) [% Ctrl] | % Ctrl, EGFR(L858R) (kinases [1]; target EGFR(L858R)) [% Ctrl] | % Ctrl, FLT3(D835H) (kinases [2]; target FLT3(D835H)) [% Ctrl] | % Ctrl, KIT(D816V) (kinases [3]; target KIT(D816V)) [% Ctrl] | % Ctrl, FLT3(D835V) (kinases [4]; target FLT3(D835V)) [% Ctrl] | % Ctrl, ABL1(E255K)-phosphorylated (kinases [5]; [7]) [% Ctrl] | % Ctrl, EGFR(L861Q) (kinases [6]; target EGFR(L861Q)) [% Ctrl]
Cc1cc2c([nH]1)/C=C1\C(=O)Nc3ccc(cc31)CN(C)C(=O)COCCNC2=O [Ex.111, [17a(18)Z]-2,11-dimethyl-6,7,11,12-tetrahydro-1H-13,15-(ethanediylidene)dipyrrolo[3,2-f:3′,4′-i][1,4,14]oxadiazacyclohexadecine-4,10,17(5H,9H,16H)-trione] | 78 | 20 | 76 | 1.5 | 42 | 64 | – | – | – | – | – | –
Cc1cc2c([nH]1)/C=C1\C(=O)Nc3cc(Cl)c(cc31)OCCOCCN(C)C2=O [Ex. 131, [16a(17)Z]-19-chloro-2,5-dimethyl-6,7,9,10-tetrahydro-1H-12,14-(ethanediylidene)dipyrrolo[3,2-i:3′,4′-l][1,4,7]dioxazacyclopentadecine-4,16(5H,15H)-dione] | 56 | 0 | 1.2 | 0 | 0 | 78 | – | – | – | – | – | –
CN1CCSCCOc2cc3c(cc2Cl)NC(=O)/C3=C\c2[nH]ccc2C1=O [Ex. 153] | – | – | – | – | – | – | 86 | 0.3 | 6.8 | 0.3 | 8.4 | 43
CN1CCOCCOc2cc3c(cc2Cl)NC(=O)/C3=C\c2[nH]ccc2C1=O [Ex. 143, [16a(17)Z]-19-chloro-2,5-dimethyl-6,7,9,10-tetrahydro-1H-12,14-(ethanediylidene)dipyrrolo[3,2-i:3′,4′-l][1,4,7]oxathiazacyclopentadecine-4,16(5H,15H)-dione] | – | – | – | – | – | – | 86 | 0.8 | 34 | 0.3 | 6.4 | 100
Cc1cc2c([nH]1)/C=C1\C(=O)Nc3ccc(cc31)-c1c(C)n[nH]c1CNCCN(C)C2=O [Ex. 127, [3a(4)Z]-6,9,16-trimethyl-9,10,11,12,13,14-hexahydro-1,17-(ethanediylidene)pyrazolo[4,3-m]dipyrrolo[3,2-f:3′,4′-i][1,4]diazacyclopentadecine-3,8(2H,5H)-dione] | 47 | 0.15 | 48 | 0.15 | 0.1 | 73 | – | – | – | – | – | –
Cc1cc2c([nH]1)/C=C1\C(=O)Nc3ccc(cc31)-c1ccnn1CCNCCNC2=O [Ex. 43, [19a(20)Z]-2-methyl-5,6,7,8,9,10-hexahydro-15,17-(ethanediylidene)pyrazolo[1,5-g]dipyrrolo[3,4-k:2′,3′-n][1,4,7]triazacyclohexadecine-4,19(1H,18H)-dione] | 97 | 93 | 96 | 27 | 84 | 90 | – | – | – | – | – | –
Cc1cc2c([nH]1)/C=C1\C(=O)Nc3ccc(cc31)-c1cnn(C)c1CNCCN(C)C2=O [Ex. 125, [3a(4)Z]-6,9,14-trimethyl-9,10,11,12,13,14-hexahydro-1,17-(ethanediylidene)pyrazolo[4,3-m]dipyrrolo[3,2-f:3′,4′-i][1,4]diazacyclopentadecine-3,8(2H,5H)-dione] | 48 | 0.05 | 0.5 | 0.25 | 0.05 | 77 | – | – | – | – | – | –
Cc1cc2c([nH]1)/C=C1\C(=O)Nc3ccc(cc31)-c1ccnn1CCOCCNC2=O [Ex.39, [19a(20)Z]-2-methyl-6,7,9,10-tetrahydro-1H-15,17-(ethanediylidene)pyrazolo[1,5-d]dipyrrolo[3,4-h:2′,3′-k][1,4,14]oxadiazacyclohexadecine-4,19(5H,18H)-dione] | 64 | 85 | 91 | 35 | 72 | 68 | – | – | – | – | – | –
Cc1cc2c([nH]1)/C=C1\C(=O)Nc3ccc(nc31)-c1ccccc1OCCCNC2=O [Ex.22, [3a(4)Z]-6-methyl-9,10,11,12-tetrahydro-1,18-(ethanediylidene)dipyrrolo[3,2-g:3′,4′-j][1,5,12]benzoxadiazacyclopentadecine-3,8(2H,5H)-dione] | 67 | 89 | 96 | 35 | 67 | 87 | – | – | – | – | – | –
Cc1cc2c([nH]1)/C=C1\C(=O)Nc3ccc(cc31)O[C@@H](C)COCCN(C)C2=O [Ex. 92, [10S,16a(17)Z]-2,5,10-trimethyl-6,7,9,10-tetrahydro-1H-12,14-(ethanediylidene)dipyrrolo[3,2-i:3′,4′-l][1,4,7]dioxazacyclopentadecine-4,16(5H,15H)-dione] | 98 | 32 | 59 | 3.7 | 22 | 100 | – | – | – | – | – | –
